For assay [1], the system named is Staphylococcus aureus. Description: Antimicrobial activity against multidrug-resistant Staphylococcus aureus isolate 2 after 18 to 24 hrs by broth microdilution method. Format: functional. Background: Broth dilution looks for growth in wells or tubes with falling amounts of substance.
Assay [2] concerns Pseudomonas aeruginosa. The assay is described as follows: Antimicrobial activity against Pseudomonas aeruginosa CIP 82.118 after 18 to 24 hrs by broth microdilution method. The class given is functional.
In assay [3] the test system is Staphylococcus aureus. Description: Antimicrobial activity against methicillin-resistant Staphylococcus aureus ATCC 33592 after 18 to 24 hrs by broth microdilution method. The class given is functional.
Assay [4] concerns Mycobacterium tuberculosis. The assay is described as follows: Antimycobacterial activity against Mycobacterium tuberculosis H37Rv assessed as growth inhibition at 0.1 uM after 6 days by MTT colorimetric microassay. The class given is functional, organism-based.
In assay [5] the test system is Enterococcus hirae. The assay is described as follows: Antimicrobial activity against Enterococcus hirae CIP 5855 after 18 to 24 hrs by broth microdilution method. Format: functional.
The subject of assay [6] is Staphylococcus aureus. Description: Antimicrobial activity against Staphylococcus aureus CIP 4.83 after 18 to 24 hrs by broth microdilution method. The class given is functional.
Assay [7] deals with Staphylococcus aureus. The assay is described as follows: Antimicrobial activity against methicillin-resistant Staphylococcus aureus ATCC 33591 after 18 to 24 hrs by broth microdilution method. The class given is functional.
For assay [8], the system named is Escherichia coli. Description: Antimicrobial activity against Escherichia coli CIP 53126 after 18 to 24 hrs by broth microdilution method. Format: functional.
Assay [9] relates to Staphylococcus aureus. Description: Antimicrobial activity against multidrug-resistant Staphylococcus aureus isolate 1 after 18 to 24 hrs by broth microdilution method. Format: functional.

5 compounds from ChEMBL document CHEMBL1914411, “Synthesis of lipophilic dimeric C-7/C-7-linked ciprofloxacin and C-6/C-6-linked levofloxacin derivatives. Versatile in vitro biological evaluations of monomeric and dimeric fluoroquinolone derivatives as potential antitumor, antibacterial or antimycobacterial agents” (Eur J Med Chem, 2011) can be followed below.

SMILES strings stand for the structures. In brackets after ≈: the same amount, converted by molar mass. Activity calls are given as the source filed them. No rule for the calls is given here.

As usually defined, the MBC is the lowest tested concentration that kills the bacteria rather than only halting them. Higher therefore signals weaker bactericidal potency. In general, MIC refers to the least concentration at which growth counts as inhibited. For `O=C(CCCCCCCCCCC(=O)OCN1CCN(c2cc3c(cc2F)c(=O)c(C(=O)O)cn3C2CC2)CC1)OCN1CCN(c2cc3c(cc2F)c(=O)c(C(=O)O)cn3C2CC2)CC1`, the minimum bactericidal concentration (MBC) in assay [1] is 250 µM (≈ 229 µg/mL); in assay [2], 125 µM (≈ 115 µg/mL); in assay [3], 0.48 µM (≈ 0.44 µg/mL); in assay [5], 31.2 µM (≈ 28.6 µg/mL); in assay [6] it was at most 0.97 µM; in assay [7], 3.9 µM (≈ 3.58 µg/mL). Moreover, the minimum bactericidal concentration (MBC) was found to be 62.5 µM (≈ 57.3 µg/mL) in [8] and 250 µM (≈ 229 µg/mL) in [9]. The minimum inhibitory concentration (MIC) was 62.5 µM (≈ 57.3 µg/mL) in assay [1]; 62.5 µM (≈ 57.3 µg/mL) in assay [2]; 0.24 µM (≈ 0.22 µg/mL) in [3]; 31.2 µM (≈ 28.6 µg/mL) in [5]; at most 0.97 µM in assay [6]; 1.9 µM (≈ 1.74 µg/mL) in assay [7]. The MIC in assay [8] amounted to 31.2 µM (≈ 28.6 µg/mL); in assay [9] it was 125 µM (≈ 115 µg/mL). The “growth inhibition (GI)” value in [4] was “inactive”.

Regarding `CCOC(=O)N1CCN(c2cc3c(cc2F)c(=O)c(C(=O)O)cn3C2CC2)CC1`, the MBC in assay [1] was 125 µM (≈ 50.4 µg/mL); in [2], 250 µM (≈ 101 µg/mL); in assay [3], 1.9 µM (≈ 0.766 µg/mL); in [5], 3.9 µM (≈ 1.57 µg/mL); in assay [6] it was at most 0.97 µM; in [7], 1.9 µM (≈ 0.766 µg/mL). Also, the figures for the minimal bactericidal concentration (MBC) in assay [8] and in assay [9] were 31.2 µM (≈ 12.6 µg/mL) and 500 µM (≈ 202 µg/mL), respectively. Besides, the MIC was 62.5 µM (≈ 25.2 µg/mL) in [1]; 62.5 µM (≈ 25.2 µg/mL) in assay [2]; 0.48 µM (≈ 0.194 µg/mL) in assay [3]; 3.9 µM (≈ 1.57 µg/mL) in assay [5]; at most 0.97 µM in assay [6]; 0.97 µM (≈ 0.391 µg/mL) in assay [7]. Also, the minimum inhibitory concentration (MIC) was found to be 7.8 µM (≈ 3.15 µg/mL) in assay [8] and 125 µM (≈ 50.4 µg/mL) in [9]. In assay [4], the “growth inhibition (GI)” value was “inactive”.

Consider `CCCC(=O)N1CCN(c2cc3c(cc2F)c(=O)c(C(=O)O)cn3C2CC2)CC1`, for which the MBC was 62.5 µM (≈ 25.1 µg/mL) in assay [1]; 250 µM (≈ 100 µg/mL) in [2]; 0.48 µM (≈ 0.193 µg/mL) in [3]; 7.8 µM (≈ 3.13 µg/mL) in assay [5]; at most 0.48 µM in assay [6]; 0.48 µM (≈ 0.193 µg/mL) in assay [7]. Further, the figures for the MBC in [8] and in assay [9] were 7.8 µM (≈ 3.13 µg/mL) and 62.5 µM (≈ 25.1 µg/mL), respectively. Moreover, the minimum inhibitory concentration (MIC) was 31.2 µM (≈ 12.5 µg/mL) in assay [1]; 62.5 µM (≈ 25.1 µg/mL) in assay [2]; 0.24 µM (≈ 0.0963 µg/mL) in assay [3]; 7.8 µM (≈ 3.13 µg/mL) in assay [5]; at most 0.48 µM in assay [6]; 0.48 µM (≈ 0.193 µg/mL) in assay [7]. In addition, the MIC in [8] amounted to 7.8 µM (≈ 3.13 µg/mL); in assay [9], 31.2 µM (≈ 12.5 µg/mL). In addition, the “growth inhibition (GI)” value in [4] was “inactive”.

In the case of `CC(C)(C)C(=O)N1CCN(c2cc3c(cc2F)c(=O)c(C(=O)O)cn3C2CC2)CC1`, the minimum bactericidal concentration (MBC) is 31.2 µM (≈ 13 µg/mL) in [1]; 250 µM (≈ 104 µg/mL) in assay [2]; 0.48 µM (≈ 0.199 µg/mL) in assay [3]; 7.8 µM (≈ 3.24 µg/mL) in assay [5]; at most 0.97 µM in assay [6]; 0.48 µM (≈ 0.199 µg/mL) in assay [7]. Besides, the minimum bactericidal concentration (MBC) in assay [8] turned out to be 31.2 µM (≈ 13 µg/mL); in [9], 500 µM (≈ 208 µg/mL). Further, the minimum inhibitory concentration (MIC) in assay [1] is 31.2 µM (≈ 13 µg/mL); in [2] it was 62.5 µM (≈ 26 µg/mL); in [3], 0.24 µM (≈ 0.0997 µg/mL); in assay [5] it was 7.8 µM (≈ 3.24 µg/mL); in assay [6] it was at most 0.48 µM; in [7], 0.48 µM (≈ 0.199 µg/mL). The minimum inhibitory concentration (MIC) in assay [8] amounted to 15.6 µM (≈ 6.48 µg/mL); in assay [9], 31.2 µM (≈ 13 µg/mL). Further, in [4], the “growth inhibition (GI)” value was “inactive”.

On to `CCC(=O)N1CCN(c2cc3c(cc2F)c(=O)c(C(=O)O)cn3C2CC2)CC1`, for which the MBC is 31.2 µM (≈ 12.1 µg/mL) in [1]; 250 µM (≈ 96.9 µg/mL) in assay [2]; 0.48 µM (≈ 0.186 µg/mL) in assay [3]; 3.9 µM (≈ 1.51 µg/mL) in assay [5]; at most 0.97 µM in [6]; 0.97 µM (≈ 0.376 µg/mL) in assay [7]. In addition, the minimum bactericidal concentration (MBC) in assay [8] and in [9] was 500 µM (≈ 194 µg/mL) throughout. In addition, the MIC in assay [1] is 31.2 µM (≈ 12.1 µg/mL); in assay [2], 31.2 µM (≈ 12.1 µg/mL); in assay [3] it was 0.24 µM (≈ 0.093 µg/mL); in [5], 3.9 µM (≈ 1.51 µg/mL); in [6] it was at most 0.48 µM; in [7], 0.48 µM (≈ 0.186 µg/mL). The minimal inhibitory concentration (MIC) in assay [8] is 3.9 µM (≈ 1.51 µg/mL); in assay [9] it was 62.5 µM (≈ 24.2 µg/mL). Also, the “growth inhibition (GI)” value in assay [4] was “inactive”.
